As usually defined, the EC50 is the concentration giving half of the maximal effect. Broadly, the IC50 is the concentration that gives 50% inhibition.

These results are taken from PMC3914206.

The target of test [1] is T1, ERK5 (Homo sapiens, UniProt Q13164). Put plainly: ERK5 autophosphorylation assay (EGF-stimulated, mobility shift immunoblot). On the set-up: endogenous in cells; host or cells: HeLa. The class given is cell-based. Conditions: inhibition of EGF-stimulated autophosphorylation of ERK5 in HeLa cells; read-out: Cellular EC50 (ERK5). The source says: Proteins from total cell lysates were resolved by 6% sodium dodecyl sulfate (SDS)-poly-acrylamide gel electrophoresis (PAGE), transferred to nitrocellulose membrane, blocked in 5% nonfat milk, and blotted with anti-ERK5 antibody.

For test [2], the target named is T1, ERK5. Put plainly: ERK5 kinase activity in vitro assay (32P-ATP, PIMtide substrate). The class given is biochemical. Further details: hexahistidine (His6) (N); made in house; host or cells: Spodoptera frugiperda 21 cells (baculovirus, Bac-to-Bac). Conditions: for IC50: in vitro assay, recombinant active ERK5, read-out: Enzymatic IC50 (ERK5). Here is the method: pFastBAC vector encoding N-terminal hexahistidine-tagged human ERK5 and HA-tagged human MEK5-DD (constitutively active) were used to generate recombinant baculovirus using the Bac-to-Bac system (Invitrogen). […] His-tagged ERK5 was purified as described for His-tagged BRSK1[33], using 5 mL Ni-NTA-agarose resin (Qiagen) followed by gel filtration chromatography on Superdex 200HR column on an AKTA system (GE Healthcare).
Assays were carried out for 20 min at 30 °C, terminated by applying the reaction mixture onto p81 paper and the incorporated radioactivity measured as described previously.

T1 sequence (Q13164 whole entry): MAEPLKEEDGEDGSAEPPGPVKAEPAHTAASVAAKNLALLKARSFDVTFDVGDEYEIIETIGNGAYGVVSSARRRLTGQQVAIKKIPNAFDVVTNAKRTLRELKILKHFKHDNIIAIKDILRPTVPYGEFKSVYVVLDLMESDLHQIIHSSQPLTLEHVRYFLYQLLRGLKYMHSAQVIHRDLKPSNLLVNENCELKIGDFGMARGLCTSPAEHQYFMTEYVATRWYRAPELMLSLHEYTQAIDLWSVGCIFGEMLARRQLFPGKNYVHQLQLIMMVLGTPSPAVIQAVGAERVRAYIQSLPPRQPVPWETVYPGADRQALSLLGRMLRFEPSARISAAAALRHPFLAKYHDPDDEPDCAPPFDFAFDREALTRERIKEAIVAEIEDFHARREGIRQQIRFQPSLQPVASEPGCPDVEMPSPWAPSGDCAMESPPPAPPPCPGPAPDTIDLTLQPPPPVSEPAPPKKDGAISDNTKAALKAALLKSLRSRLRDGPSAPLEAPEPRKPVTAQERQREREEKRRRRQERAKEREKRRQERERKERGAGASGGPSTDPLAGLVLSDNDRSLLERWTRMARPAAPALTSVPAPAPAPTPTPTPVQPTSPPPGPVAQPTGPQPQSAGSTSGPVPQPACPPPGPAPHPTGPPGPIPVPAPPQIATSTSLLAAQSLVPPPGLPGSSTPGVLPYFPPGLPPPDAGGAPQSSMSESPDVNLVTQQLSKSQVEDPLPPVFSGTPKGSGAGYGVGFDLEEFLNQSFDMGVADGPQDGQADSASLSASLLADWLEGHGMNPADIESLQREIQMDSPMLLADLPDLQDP

As to `COc1cc(N2CCC(O)CC2)ccc1Nc1ncc2c(n1)N(C)c1ccccc1C(=O)N2C` [Compound 6], the 50% effective concentration (EC50) at ERK5 [1] was found to be 240 ± 40 nM. Further, the IC50 on ERK5 [2] is 297 ± 14 nM.
For `COc1cc(N2CCN(C)CC2)ccc1Nc1ncc2c(n1)N(C(C)C)c1ccccc1C(=O)N2C` [Compound 18] the same measures were 230 ± 30 nM and 98 ± 12 nM.
As for `CN1C(=O)c2ccccc2N(C)c2nc(Nc3ccc(S(N)(=O)=O)cc3)ncc21` [Compound 8], the EC50 at ERK5 [1] is 310 ± 60 nM. In addition, the concentration for half-maximal inhibition (IC50) on ERK5 [2] came to 171 ± 16 nM.
In the case of `COc1cc(N2CCN(C)CC2)ccc1Nc1ncc2c(n1)N(C)c1ccccc1C(=O)N2` [Compound 16], the concentration giving a half-maximal response (EC50) at ERK5 [1] is above 1000 nM. Moreover, the concentration for half-maximal inhibition (IC50) at ERK5 [2] stood at 1450 ± 210 nM. Further, the “fold decrease in activity for ERK5” value at ERK5 [2] (relative to compound 5) is on record as 4 fold.
On to `CN1CCC(Nc2ncc3c(n2)N(C)c2ccccc2C(=O)N3C)CC1` [Compound 10], for which, on ERK5 [1], the concentration for a half-maximal effect (EC50) was 4110 ± 590 nM. In addition, the IC50 at ERK5 [2] was 1250 ± 151 nM.
The corresponding values for `COc1cc(N2CCN(C)CC2)ccc1Nc1ncc2c(n1)N(C1CCCC1)c1ccccc1C(=O)N2C` [Compound 19] are 200 ± 40 nM and 146 ± 18 nM.
For `CC(C)Oc1cc(N2CCC(O)CC2)ccc1Nc1ncc2c(n1)N(C)c1ccccc1C(=O)N2C` [Compound 12], the 50% effective concentration (EC50) at ERK5 [1] is above 500 nM. Further, the IC50 on ERK5 [2] came to 1530 ± 172 nM.
As to `COc1cc(N2CCN(C)CC2)ccc1Nc1ncc2c(n1)N(C)c1cc(Cl)ccc1C(=O)N2C` [Compound 21], on ERK5 [1], the EC50 stood at 1240 ± 240 nM. Further, the IC50 at ERK5 [2] was 1130 ± 160 nM.
The corresponding values for `CCN1c2ccccc2C(=O)N(C)c2cnc(Nc3ccc(N4CCN(C)CC4)cc3OC)nc21` [Compound 17] are 200 ± 40 nM and 66 ± 7 nM.
The corresponding values for `COc1cc(C(=O)NC2CCN(C)CC2)ccc1Nc1ncc2c(n1)N(C)c1ccccc1C(=O)N2C` [Compound 14] are 320 ± 50 nM and 338 ± 18 nM.
For `COc1cc(N2CCOCC2)ccc1Nc1ncc2c(n1)N(C)c1ccccc1C(=O)N2C` [Compound 7] the same measures were 260 ± 30 nM and 233 ± 19 nM.
Turning to `COc1cc(NCCN(C)C)ccc1Nc1ncc2c(n1)N(C)c1ccccc1C(=O)N2C` [Compound 13], the EC50 at ERK5 [1] was 240 ± 30 nM. Also, the IC50 on ERK5 [2] came out at 140 ± 9 nM.
For `COc1cc(N2CCN(C)CC2)ccc1Nc1ncc2c(n1)N(C)c1ccc(F)cc1C(=O)N2C` [Compound 20] the same measures were 1320 ± 220 nM and 873 ± 60 nM.
In the case of `COc1cc(N2CCN(C)CC2)ccc1Nc1ncc2c(n1)N(C)c1ccc(Cl)cc1C(=O)N2C` [Compound 22], the 50% effective concentration (EC50) at ERK5 [1] came to 11400 ± 2040 nM. Also, the half-maximal inhibitory concentration (IC50) on ERK5 [2] came out at 5090 ± 52 nM.
Regarding `COc1cc(N2CCN(C)CC2)ccc1Nc1ncc2c(n1)N(C)c1cc(C)ccc1C(=O)N2C` [Compound 23], the EC50 at ERK5 [1] stood at 3100 ± 620 nM. The IC50 at ERK5 [2] is 2460 ± 260 nM.
In the case of `CN1C(=O)c2ccccc2N(C)c2nc(NCCc3cnc[nH]3)ncc21` [Compound 9], the concentration giving a half-maximal response (EC50) on ERK5 [1] came to 4680 ± 520 nM. Further, the half-maximal inhibitory concentration (IC50) on ERK5 [2] was 1720 ± 221 nM.
